Experimental data published in ChEMBL document CHEMBL5335856, “Structurally Diverse Alkaloids with Anti-Renal-Fibrosis Activity from the Centipede Scolopendra subspinipes mutilans” (J Nat Prod, 2024).
Active and inactive are the calls of the source. The rule behind the calls is not given here.

Columns and labels:
[1] = target: Lamin-B2 (Homo sapiens) (UniProt Q03252); test: Binding affinity to Lmnb2 (unknown origin) assessed as fold change in protein upregulation at 200 uM preincubated for 2 hrs followed by pronase addition and measured after 30 mins by coomassie blue staining based SDS-PAGE gel analysis
[2] = tested on: NRK-52E; test: Anti-renal-fibrosis activity in TGF-beta1 induced rat NRK-52E cells assessed as downregulation of fibronectin protein level by Western blot analysis; type: functional, cell-based; details: dose 5-40 µM
[3] = target: Rho-related GTP-binding protein RhoB (Homo sapiens) (UniProt P62745); test: Binding affinity to RHOB (unknown origin) at 200 uM preincubated for 2 hrs followed by pronase addition and measured after 30 mins by coomassie blue staining based SDS-PAGE gel analysis
[4] = target: Lysosome-associated membrane glycoprotein 2 (Homo sapiens) (UniProt P13473); test: Binding affinity to Lamp2 (unknown origin) assessed as fold change in protein upregulation at 200 uM preincubated for 2 hrs followed by pronase addition and measured after 30 mins by coomassie blue staining based SDS-PAGE gel analysis
[5] = target: Transcription initiation factor TFIID subunit 6 (Homo sapiens) (UniProt P49848); test: Binding affinity to Taf6 (unknown origin) at 200 uM preincubated for 2 hrs followed by pronase addition and measured after 30 mins by coomassie blue staining based SDS-PAGE gel analysis
[6] = target: Kinesin-like protein KIF21A (Homo sapiens) (UniProt Q7Z4S6); test: Binding affinity to Kif21a (unknown origin) at 200 uM preincubated for 2 hrs followed by pronase addition and measured after 30 mins by coomassie blue staining based SDS-PAGE gel analysis
[7] = target: Poly(rC)-binding protein 3 (Homo sapiens) (UniProt P57721); test: Binding affinity to Pcbp3 (unknown origin) at 200 uM preincubated for 2 hrs followed by pronase addition and measured after 30 mins by coomassie blue staining based SDS-PAGE gel analysis
[8] = tested on: NRK-52E; test: Anti-renal-fibrosis activity in TGF-beta1 induced rat NRK-52E cells assessed as downregulation of fibronectin protein level at 20 uM by Western blot analysis; type: functional, cell-based
[9] = tested on: NRK-52E; test: Anti-renal-fibrosis activity in TGF-beta1 induced rat NRK-52E cells assessed as downregulation of collagen I expression at 40 uM; type: functional, cell-based
[10] = target: U6 snRNA-associated Sm-like protein LSm8 (Homo sapiens) (UniProt O95777); test: Binding affinity to Lsm8 (unknown origin) at 200 uM preincubated for 2 hrs followed by pronase addition and measured after 30 mins by coomassie blue staining based SDS-PAGE gel analysis
[11] = target: CD2-associated protein (Homo sapiens) (UniProt Q9Y5K6); test: Binding affinity to Cd2ap (unknown origin) at 200 uM preincubated for 2 hrs followed by pronase addition and measured after 30 mins by coomassie blue staining based SDS-PAGE gel analysis
[12] = target: Sorting nexin-3 (Homo sapiens) (UniProt O60493); test: Binding affinity to Snx3 (unknown origin) assessed as fold change in protein upregulation at 200 uM preincubated for 2 hrs followed by pronase addition and measured after 30 mins by coomassie blue staining based SDS-PAGE gel analysis
[13] = target: Splicing factor 3A subunit 3 (Homo sapiens) (UniProt Q12874); test: Binding affinity to Sf3a3 (unknown origin) assessed as fold change in protein upregulation at 200 uM preincubated for 2 hrs followed by pronase addition and measured after 30 mins by coomassie blue staining based SDS-PAGE gel analysis
[14] = tested on: RNA polymerase II-associated factor 1 homolog; test: Binding affinity to Paf1 (unknown origin) at 200 uM preincubated for 2 hrs followed by pronase addition and measured after 30 mins by coomassie blue staining based SDS-PAGE gel analysis; details: Homo sapiens
[15] = target: V-type proton ATPase subunit C 1 (Homo sapiens) (UniProt P21283); test: Binding affinity to Atp6v1c1 (unknown origin) assessed as fold change in protein upregulation at 200 uM preincubated for 2 hrs followed by pronase addition and measured after 30 mins by coomassie blue staining based SDS-PAGE gel analysis
[16] = target: Far upstream element-binding protein 1 (Homo sapiens) (UniProt Q96AE4); test: Binding affinity to Fubp1 (unknown origin) assessed as fold change in protein upregulation at 200 uM preincubated for 2 hrs followed by pronase addition and measured after 30 mins by coomassie blue staining based SDS-PAGE gel analysis
[17] = tested on: NRK-52E; test: Anti-renal-fibrosis activity in TGF-beta1 induced Lamp2 knocked down rat NRK-52E cells assessed as downregulation of alpha-SMA expression at 40 uM; type: functional, cell-based
[18] = target: Nonsense-mediated mRNA decay factor SMG7 (Homo sapiens) (UniProt Q92540); test: Binding affinity to Smg7 (unknown origin) at 200 uM preincubated for 2 hrs followed by pronase addition and measured after 30 mins by coomassie blue staining based SDS-PAGE gel analysis
[19] = tested on: NRK-52E; test: Anti-renal-fibrosis activity in TGF-beta1 induced rat NRK-52E cells assessed as downregulation of alpha-SMA expression at 40 uM; type: functional, cell-based
[20] = tested on: NRK-52E; test: Cytotoxicity against rat NRK-52E cells at 10 to 80 uM incubated for 48 hrs by CCK-8 assay; type: toxicity, cell-based; details: dose 10-80 µM
[21] = tested on: NRK-52E; test: Anti-renal-fibrosis activity in TGF-beta1 induced Lamp2 knocked down rat NRK-52E cells assessed as downregulation of fibronectin expression at 40 uM; type: functional, cell-based
[22] = target: Protein farnesyltransferase/geranylgeranyltransferase type-1 subunit alpha (Homo sapiens) (UniProt P49354); test: Binding affinity to FNTA (unknown origin) assessed as fold change in protein upregulation at 200 uM preincubated for 2 hrs followed by pronase addition and measured after 30 mins by coomassie blue staining based SDS-PAGE gel analysis
[23] = target: 10 kDa heat shock protein, mitochondrial (Homo sapiens) (UniProt P61604); test: Binding affinity to Hspe1 (unknown origin) assessed as fold change in protein upregulation at 200 uM preincubated for 2 hrs followed by pronase addition and measured after 30 mins by coomassie blue staining based SDS-PAGE gel analysis
[24] = target: Serine/threonine-protein kinase TAO3 (Homo sapiens) (UniProt Q9H2K8); test: Binding affinity to Taok3 (unknown origin) at 200 uM preincubated for 2 hrs followed by pronase addition and measured after 30 mins by coomassie blue staining based SDS-PAGE gel analysis
[25] = species on record: Homo sapiens; test: Binding affinity to Wdr95 (unknown origin) at 200 uM preincubated for 2 hrs followed by pronase addition and measured after 30 mins by coomassie blue staining based SDS-PAGE gel analysis
[26] = target: Na(+)/H(+) exchange regulatory cofactor NHE-RF1 (Homo sapiens) (UniProt O14745); test: Binding affinity to Slc9a3r1 (unknown origin) assessed as fold change in protein upregulation at 200 uM preincubated for 2 hrs followed by pronase addition and measured after 30 mins by coomassie blue staining based SDS-PAGE gel analysis
[27] = target: Septin-5 (Homo sapiens) (UniProt Q99719); test: Binding affinity to Septin5 (unknown origin) assessed as fold change in protein upregulation at 200 uM preincubated for 2 hrs followed by pronase addition and measured after 30 mins by coomassie blue staining based SDS-PAGE gel analysis
Sequence of Septin-5 (Homo sapiens) (Q99719 whole entry): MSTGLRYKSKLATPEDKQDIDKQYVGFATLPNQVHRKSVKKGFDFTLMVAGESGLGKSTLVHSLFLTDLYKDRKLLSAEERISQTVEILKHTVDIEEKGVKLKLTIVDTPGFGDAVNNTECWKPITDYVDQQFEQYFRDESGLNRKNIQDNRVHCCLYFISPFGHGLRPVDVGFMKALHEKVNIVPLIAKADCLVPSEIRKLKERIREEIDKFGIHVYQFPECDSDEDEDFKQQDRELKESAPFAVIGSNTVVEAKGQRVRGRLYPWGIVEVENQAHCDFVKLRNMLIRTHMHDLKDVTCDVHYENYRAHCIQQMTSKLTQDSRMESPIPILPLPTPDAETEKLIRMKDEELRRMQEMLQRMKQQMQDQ

Sequence of Poly(rC)-binding protein 3 (Homo sapiens) (P57721 whole entry): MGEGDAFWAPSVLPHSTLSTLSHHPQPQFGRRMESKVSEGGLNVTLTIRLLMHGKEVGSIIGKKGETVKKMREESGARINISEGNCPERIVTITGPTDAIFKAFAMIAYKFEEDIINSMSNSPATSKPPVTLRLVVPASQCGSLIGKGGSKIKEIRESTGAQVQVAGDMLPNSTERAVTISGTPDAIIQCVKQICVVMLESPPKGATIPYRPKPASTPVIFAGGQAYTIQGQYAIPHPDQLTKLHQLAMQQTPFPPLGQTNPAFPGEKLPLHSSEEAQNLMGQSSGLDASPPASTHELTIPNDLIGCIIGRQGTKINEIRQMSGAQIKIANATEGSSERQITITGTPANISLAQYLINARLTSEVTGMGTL
Sequence of U6 snRNA-associated Sm-like protein LSm8 (Homo sapiens) (O95777 whole entry): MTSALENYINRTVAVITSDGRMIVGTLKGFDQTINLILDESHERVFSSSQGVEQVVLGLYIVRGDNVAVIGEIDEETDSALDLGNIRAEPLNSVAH
Sequence of CD2-associated protein (Homo sapiens) (Q9Y5K6 whole entry): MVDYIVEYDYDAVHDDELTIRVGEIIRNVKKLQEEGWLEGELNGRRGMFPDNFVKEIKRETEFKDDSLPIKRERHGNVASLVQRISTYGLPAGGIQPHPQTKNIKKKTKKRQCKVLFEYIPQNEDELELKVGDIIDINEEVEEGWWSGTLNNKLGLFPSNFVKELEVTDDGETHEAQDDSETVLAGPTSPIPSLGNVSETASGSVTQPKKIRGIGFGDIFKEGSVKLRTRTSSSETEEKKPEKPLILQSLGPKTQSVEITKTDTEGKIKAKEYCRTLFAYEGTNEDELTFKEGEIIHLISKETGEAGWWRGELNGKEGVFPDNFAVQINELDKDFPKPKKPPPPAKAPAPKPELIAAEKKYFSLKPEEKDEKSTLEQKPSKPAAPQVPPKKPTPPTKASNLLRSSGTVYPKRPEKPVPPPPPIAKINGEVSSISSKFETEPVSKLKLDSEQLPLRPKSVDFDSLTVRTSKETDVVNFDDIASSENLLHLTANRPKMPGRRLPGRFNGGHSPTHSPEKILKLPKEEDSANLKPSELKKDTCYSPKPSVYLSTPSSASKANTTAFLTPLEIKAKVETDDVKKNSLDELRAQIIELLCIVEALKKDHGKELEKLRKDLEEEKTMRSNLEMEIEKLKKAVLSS
Sequence of Far upstream element-binding protein 1 (Homo sapiens) (Q96AE4 whole entry): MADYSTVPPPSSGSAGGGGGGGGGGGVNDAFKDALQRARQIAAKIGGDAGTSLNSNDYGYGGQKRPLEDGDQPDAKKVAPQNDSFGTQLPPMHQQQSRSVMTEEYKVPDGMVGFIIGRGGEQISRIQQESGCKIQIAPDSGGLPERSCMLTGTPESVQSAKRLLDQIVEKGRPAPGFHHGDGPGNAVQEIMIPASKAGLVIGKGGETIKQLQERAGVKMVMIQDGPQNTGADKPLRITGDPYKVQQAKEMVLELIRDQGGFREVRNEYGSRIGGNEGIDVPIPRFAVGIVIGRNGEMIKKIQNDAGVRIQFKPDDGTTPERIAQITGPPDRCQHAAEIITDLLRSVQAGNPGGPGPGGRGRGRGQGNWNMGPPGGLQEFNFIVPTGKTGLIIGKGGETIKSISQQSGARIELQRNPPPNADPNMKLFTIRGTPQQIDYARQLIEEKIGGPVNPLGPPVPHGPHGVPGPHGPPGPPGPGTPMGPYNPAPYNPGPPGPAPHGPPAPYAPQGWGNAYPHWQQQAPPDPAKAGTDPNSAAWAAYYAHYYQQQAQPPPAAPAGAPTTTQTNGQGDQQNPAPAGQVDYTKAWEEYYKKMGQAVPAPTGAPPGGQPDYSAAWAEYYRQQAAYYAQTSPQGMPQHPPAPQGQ
Sequence of Sorting nexin-3 (Homo sapiens) (O60493 whole entry): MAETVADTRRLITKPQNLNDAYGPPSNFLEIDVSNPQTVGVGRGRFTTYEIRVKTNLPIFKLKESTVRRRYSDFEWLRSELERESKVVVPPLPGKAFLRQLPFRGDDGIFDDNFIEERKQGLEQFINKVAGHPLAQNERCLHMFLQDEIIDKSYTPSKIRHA
Sequence of 10 kDa heat shock protein, mitochondrial (Homo sapiens) (P61604 whole entry): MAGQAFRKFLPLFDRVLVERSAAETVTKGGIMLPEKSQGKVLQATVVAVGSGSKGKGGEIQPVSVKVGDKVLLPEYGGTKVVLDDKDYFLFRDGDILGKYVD
Sequence of V-type proton ATPase subunit C 1 (Homo sapiens) (P21283 whole entry): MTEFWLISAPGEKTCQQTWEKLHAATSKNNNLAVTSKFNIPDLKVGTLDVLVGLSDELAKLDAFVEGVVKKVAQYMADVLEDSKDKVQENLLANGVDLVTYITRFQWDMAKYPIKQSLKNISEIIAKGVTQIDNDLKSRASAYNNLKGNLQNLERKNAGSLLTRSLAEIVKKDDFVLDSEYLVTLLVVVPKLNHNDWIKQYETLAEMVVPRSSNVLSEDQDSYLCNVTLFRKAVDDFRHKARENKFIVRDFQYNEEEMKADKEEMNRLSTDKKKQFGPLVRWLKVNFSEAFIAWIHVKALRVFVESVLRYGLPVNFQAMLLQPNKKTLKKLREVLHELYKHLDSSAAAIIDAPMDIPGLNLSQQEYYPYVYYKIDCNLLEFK
Sequence of Splicing factor 3A subunit 3 (Homo sapiens) (Q12874 whole entry): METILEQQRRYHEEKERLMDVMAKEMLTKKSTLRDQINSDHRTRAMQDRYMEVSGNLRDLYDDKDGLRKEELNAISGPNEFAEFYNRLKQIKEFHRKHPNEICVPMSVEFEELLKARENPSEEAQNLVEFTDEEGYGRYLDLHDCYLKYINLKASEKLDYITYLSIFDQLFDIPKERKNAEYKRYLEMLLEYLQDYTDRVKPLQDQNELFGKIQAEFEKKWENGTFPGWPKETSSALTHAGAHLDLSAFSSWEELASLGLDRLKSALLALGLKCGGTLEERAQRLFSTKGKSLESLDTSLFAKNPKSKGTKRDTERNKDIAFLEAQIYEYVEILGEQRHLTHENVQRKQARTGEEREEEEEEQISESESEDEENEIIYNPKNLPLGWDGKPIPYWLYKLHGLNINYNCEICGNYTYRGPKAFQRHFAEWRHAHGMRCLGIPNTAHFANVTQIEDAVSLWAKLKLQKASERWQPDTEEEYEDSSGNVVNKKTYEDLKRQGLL
Sequence of Lysosome-associated membrane glycoprotein 2 (Homo sapiens) (P13473 whole entry): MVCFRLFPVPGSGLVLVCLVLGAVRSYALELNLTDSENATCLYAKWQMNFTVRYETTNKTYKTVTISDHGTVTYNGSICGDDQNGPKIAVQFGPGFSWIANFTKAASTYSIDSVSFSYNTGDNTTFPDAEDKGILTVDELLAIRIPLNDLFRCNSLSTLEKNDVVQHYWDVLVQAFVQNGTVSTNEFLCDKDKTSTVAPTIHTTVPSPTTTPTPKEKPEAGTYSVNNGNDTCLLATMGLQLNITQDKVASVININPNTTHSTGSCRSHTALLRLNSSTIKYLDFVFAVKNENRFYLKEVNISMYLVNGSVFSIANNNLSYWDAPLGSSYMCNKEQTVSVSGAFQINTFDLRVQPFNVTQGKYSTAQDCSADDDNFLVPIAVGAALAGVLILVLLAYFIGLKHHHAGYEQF
Sequence of Na(+)/H(+) exchange regulatory cofactor NHE-RF1 (Homo sapiens) (O14745 whole entry): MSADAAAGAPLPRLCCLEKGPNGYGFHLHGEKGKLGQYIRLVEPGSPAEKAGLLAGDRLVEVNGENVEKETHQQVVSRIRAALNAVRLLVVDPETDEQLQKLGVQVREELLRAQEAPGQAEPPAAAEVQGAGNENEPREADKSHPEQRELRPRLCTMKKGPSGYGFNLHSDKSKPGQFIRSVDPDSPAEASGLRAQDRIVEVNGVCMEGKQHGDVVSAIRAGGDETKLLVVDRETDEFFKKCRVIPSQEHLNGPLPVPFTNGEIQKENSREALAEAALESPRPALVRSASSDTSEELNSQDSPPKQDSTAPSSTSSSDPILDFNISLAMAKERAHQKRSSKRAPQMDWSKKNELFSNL
Sequence of Transcription initiation factor TFIID subunit 6 (Homo sapiens) (P49848 whole entry): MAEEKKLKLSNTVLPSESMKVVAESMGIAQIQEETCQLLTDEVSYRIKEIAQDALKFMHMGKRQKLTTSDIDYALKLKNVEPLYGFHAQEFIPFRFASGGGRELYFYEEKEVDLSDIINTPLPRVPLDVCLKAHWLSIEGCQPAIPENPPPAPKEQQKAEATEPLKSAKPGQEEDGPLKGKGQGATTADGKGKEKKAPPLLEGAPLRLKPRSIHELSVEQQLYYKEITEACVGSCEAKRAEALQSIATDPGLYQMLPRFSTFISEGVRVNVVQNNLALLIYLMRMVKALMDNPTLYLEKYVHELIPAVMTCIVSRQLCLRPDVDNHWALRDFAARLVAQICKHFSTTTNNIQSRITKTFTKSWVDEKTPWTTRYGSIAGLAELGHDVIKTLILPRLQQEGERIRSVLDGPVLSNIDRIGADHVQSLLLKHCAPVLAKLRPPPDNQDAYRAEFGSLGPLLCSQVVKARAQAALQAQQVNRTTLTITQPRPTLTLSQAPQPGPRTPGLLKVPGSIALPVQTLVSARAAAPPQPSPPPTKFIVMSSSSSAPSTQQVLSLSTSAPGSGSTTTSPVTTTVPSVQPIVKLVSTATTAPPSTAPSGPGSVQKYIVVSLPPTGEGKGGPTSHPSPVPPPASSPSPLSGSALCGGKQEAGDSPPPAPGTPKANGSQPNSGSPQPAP
Sequence of Rho-related GTP-binding protein RhoB (Homo sapiens) (P62745 whole entry): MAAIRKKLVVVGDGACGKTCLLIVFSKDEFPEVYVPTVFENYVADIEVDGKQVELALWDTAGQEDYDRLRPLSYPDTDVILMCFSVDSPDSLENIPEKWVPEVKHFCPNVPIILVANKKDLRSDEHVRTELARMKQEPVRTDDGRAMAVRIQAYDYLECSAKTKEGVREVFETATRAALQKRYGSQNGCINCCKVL

## COc1c(O)nc2c(O)cccc2c1OC
[1]
  fold change (FC): 1.24
[2]
  Activity: Dose-Dependent Effect
[3]
  Activity: Active
[4]
  fold change (FC): 2.42
[5]
  Activity: Active
[6]
  Activity: Active
[7]
  Activity: Active
[8]
  Activity: Active
[9]
  Activity: Active
[10]
  Activity: Active
[11]
  Activity: Active
[12]
  fold change (FC): 1.67
[13]
  fold change (FC): 1.8
[14]
  Activity: Active
[15]
  fold change (FC): 1.21
[16]
  fold change (FC): 1.29
[17]
  Activity: inactive
[18]
  Activity: Active
[19]
  Activity: Active
[20]
  Activity: Non-Toxic
[21]
  Activity: inactive
[22]
  fold change (FC): 1.26
[23]
  fold change (FC): 1.34
[24]
  Activity: Active
[25]
  Activity: Active
[26]
  fold change (FC): 3.04
[27]
  fold change (FC): 1.48
